What follows are compounds tested against T1, human 5-HT5A receptor (Homo sapiens, UniProt P47898) (assay: Test on a human 5-HT5A receptor binding inhibition ([3H]5-CT)). Conditions: membrane from HEK293 cells expressing human 5-HT5A receptor; Ki calculated from IC50 and Kd 4.95 nM.
T1 construct: expressed in transfected cells; membrane preparation
Procedure: Acquisition of HEK293 cells for forced expressions of a human 5-HT5A receptor
The ORF (open reading frame; protein coding region) of a human 5-HT5A receptor (Genbank AF498985) was cloned from a human hippocampus cDNA library, and then inserted into a pCR2.1 vector (Invitrogen), and Escherichia coli containing the plasmid was cultured in a large amount. Next, the full-length cDNA sequence of the human 5-HT5A receptor was analyzed, and recombined into a pcDNA3.1 vector (Invitrogen) as an expression vector and cultured in a large amount. HEK293 established cells (ATCC) derived from the human fetal kidney were seeded, the expression plasmid (1 μg) obtained above were added thereto with LIPOFECTAMINE 2000 (Invitrogen; 2 μl), the gene was transfected into HEK293 cells, and the expression cells were screened with a drug-resistant marker, Geneticin (G418 sulfate 500 μg/ml; Kanto Chemical Co., Inc.). Thus prepared recombinant cells which express the gene were cultured in a medium containing D-MEM (Dulbecco's modified eagle medium, Sigma), 10% FCS (Fetal calf serum: fetal bovine serum), 1% Pc./Sm (Penicillin/Streptomycin, Invitrogen), and 500 μg/ml G418 for 3 days. These experimental operations follow an manual for gene operation experiment and an instruction appended in a reagent, and the like, such as a known method (Sambrook, J. et al, Molecular Cloning—A Laboratory Manual”, Cold Spring Harabor laboratory, NY, 1989).
(1) Preparation of a Membrane from HEK293 Cells for Forced Expressions of a Human 5-HT5A Receptor
HEK293 cells for forced expressions of a human 5-HT5A receptor were cultured in a F500 plate, and scraped with a scraper. After centrifugation, a precipitate was collected, and an incubation buffer (50 mM Tris (HCl) (pH 7.4), 10 mM MgSO4, and 0.5 mM EDTA (ethylenediamine tetraacetic acid)) were added thereto. After homogenization, it was further centrifuged, and the precipitate was added with the incubation buffer, followed by thoroughly suspending. This operation was repeated, and a protein concentration was measured, thereby completing the preparation of a membrane.
(2) Test on a Human 5-HT5A Receptor Binding Inhibition
A solution of a compound to be tested and 100 μM 5-CT (5-carboxamidetriptamine) in DMSO was added to a 96-well plate at 2 μl/well, and suspended in an incubation buffer, and a membrane from HEK293 cells for forced expressions of a human 5-HT5A receptor prepared at 200 μg/ml was added at 100 μl/well. After incubation at room temperature for 15 minutes, a [^3H]5-CT solution (2 nM [^3H]5-CT, incubation buffer) was added thereto at 100 μl/well.
Separately, 100 μl of the solution was distributed into a liquid scintillation vial, and 2 ml of Aquasol II (registered trademark) was added thereto, followed by stirring. Then, a radioactivity was measured by a liquid scintillation counter. It was incubated at 37° C. for 60 minutes. The reaction mixture was sucked into 96-well GF/C filter plate that had been pre-treated with 0.2% polyethyleneimine, and washed six times with an ice-cooled, 50 mM Tris (pH 7.5) buffer. The GF/C filter plate was dried.
Microscint TMPS (registered trademark) was added thereto at 40 μl/well. A radioactivity remaining on the GF/C filter plate was measured by a top counter.
The [^3H]5-CT binding inhibiting activity by the compound to be tested in each experiment was determined as an IC50 value with a radioactivity upon addition of DMSO alone being 0% inhibition, and a radioactivity upon addition of 1 μM 5-CT being 100% inhibition. Separately, a Ki value was calculated from the Kd value of the [^3H]5-CT determined from Scatchard analysis, by the following equation.
Ki=IC50(1+Concentration of ligands added/Kd(4.95 nM))

T1 sequence (P47898 whole entry): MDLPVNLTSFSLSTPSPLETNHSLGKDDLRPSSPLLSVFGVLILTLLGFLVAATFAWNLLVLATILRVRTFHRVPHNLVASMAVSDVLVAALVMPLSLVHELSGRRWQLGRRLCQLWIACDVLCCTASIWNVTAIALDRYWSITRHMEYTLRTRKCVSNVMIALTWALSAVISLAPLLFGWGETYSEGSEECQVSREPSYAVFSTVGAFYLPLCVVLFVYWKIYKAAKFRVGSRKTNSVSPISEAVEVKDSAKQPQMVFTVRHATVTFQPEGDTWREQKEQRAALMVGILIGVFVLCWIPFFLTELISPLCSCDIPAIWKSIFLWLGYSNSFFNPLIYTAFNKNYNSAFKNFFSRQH

SMILES	Ki [nM]
Cc1sc2ccc(C(=O)N=C(N)N)cc2c1-c1ccccc1F [Example 3-35]	0.3 to 3
NC(N)=NC(=O)c1ccc2c(c1)C(c1ccc(C(F)(F)F)nc1)=CCC2 [Example 2-142]	30 to 300
COc1cccc(C#N)c1C1=CC(C)Oc2ccc(C(=O)N=C(N)N)cc21 (centres unmarked) [Example 1-165]	30 to 300
CC1=C(c2ccc(F)cc2C)c2cc(C(=O)N=C(N)N)ccc2CC1 [Example 2-163]	0.3 to 3
NC(N)=NC(=O)c1ccc2c(c1)C(c1cncs1)=CCC2 [Example 2-157]	3 to 30
CC1C=C(c2c(F)cc(F)cc2F)c2cc(C(=O)N=C(N)N)ccc2O1 (centres unmarked) [Example 1-71]	0.3 to 3
NC(N)=NC(=O)c1ccc2scc(-c3ccccc3)c2c1 [Example 3-07]	3 to 30
CC(C)n1cc(C2=CCCc3ccc(C(=O)N=C(N)N)cc32)cn1 [Example 2-167]	30 to 300
NC(N)=NC(=O)c1ccc2c(c1)C(c1c(Cl)cncc1Cl)=CCC2 [Example 2-190]	3 to 30
N#Cc1ccc(C2=CCCCc3ccc(C(=O)N=C(N)N)cc32)cc1 [Example 3-04]	30 to 300
NC(N)=NC(=O)c1ccc2c(c1)C(c1ccc(F)cc1F)=CCC2 [Example 2-101]	0.3 to 3
NC(N)=NC(=O)c1ccc2c(c1)C(c1cccc(F)c1Cl)=CCO2 [Example 1-102]	0.3 to 3
NC(N)=NC(=O)c1ccc2c(c1)C(c1ccccc1O)=CCO2 [Example 1-22]	0.3 to 3
COc1ccc(F)cc1-c1csc2ccc(C(=O)N=C(N)N)cc12 [Example 3-28]	3 to 30
COc1cc(F)ccc1C1=C(C)CCc2ccc(C(=O)N=C(N)N)cc21 [Example 2-71]	3 to 30
NC(N)=NC(=O)c1ccc2c(c1)C(c1cccc([N+](=O)[O-])c1)=CCC2 [Example 2-47]	3 to 30
CC1=C(c2ccc(C)nc2)c2cc(C(=O)N=C(N)N)ccc2CC1 [Example 2-141]	3 to 30
COc1ccccc1C1=CCSc2ccc(C(=O)N=C(N)N)cc21 [Example 3-18]	30 to 300
N#CCc1ccccc1C1=CCCc2ccc(C(=O)N=C(N)N)cc21 [Example 2-114]	30 to 300
COc1ccc(-c2csc3ccc(C(=O)N=C(N)N)cc23)cc1 [Example 3-24]	3 to 30
CC1C=C(c2ccc(C#N)cc2)c2cc(C(=O)N=C(N)N)ccc2O1 (centres unmarked) [Example 1-72]	3 to 30
NC(=O)c1cccc(C2=CCCc3ccc(C(=O)N=C(N)N)cc32)c1 [Example 2-30]	30 to 300
NC(N)=NC(=O)c1ccc2c(c1)C(c1cccc(Cl)c1F)=CCC2 [Example 2-110]	0.3 to 3

SMILES	Ki [nM]
Cn1cc(C2=CCOc3ccc(C(=O)N=C(N)N)cc32)cn1 [Example 1-66]	30 to 300
CC1=C(c2ccc(Cl)cc2Cl)c2cc(C(=O)N=C(N)N)ccc2CC1 [Example 2-144]	0.3 to 3
CC1C=C(c2cccs2)c2cc(C(=O)N=C(N)N)ccc2O1 (centres unmarked) [Example 1-166]	3 to 30
N#Cc1ccc(C2=CCOc3c(F)cc(C(=O)N=C(N)N)cc32)cc1 [Example 1-87]	30 to 300
CN(C)Cc1ccccc1C1=CCCc2ccc(C(=O)N=C(N)N)cc21 [Example 2-36]	30 to 300
NC(N)=NC(=O)c1ccc2c(c1)C(c1cc(F)c(F)cc1F)=CCO2 [Example 1-53]	3 to 30
CN(C)Cc1cccc(C2=CCCc3ccc(C(=O)N=C(N)N)cc32)c1 [Example 2-38]	3 to 30
N#Cc1cc(C2=CCOc3ccc(C(=O)N=C(N)N)cc32)ccc1F [Example 1-49]	30 to 300
CC1(C)C=C(c2ccc(F)cc2F)c2cc(C(=O)N=C(N)N)ccc2O1 [Example 1-105]	3 to 30
NC(N)=NC(=O)c1ccc2c(c1)C(c1c(F)cc(F)cc1F)=CC1(CCCC1)O2 [Example 1-121]	3 to 30
CC1(C)CC=C(c2ccccc2)c2cc(C(=O)N=C(N)N)ccc21 [Example 2-80]	30 to 300
NC(N)=NC(=O)c1ccc2c(c1)C(c1ccc(F)cc1Cl)=CCC2 [Example 2-70]	0.3 to 3
CC1C=C(c2ccsc2)c2cc(C(=O)N=C(N)N)ccc2O1 (centres unmarked) [Example 1-167]	3 to 30
NC(N)=NC(=O)c1ccc2c(c1)C(c1ccccc1F)=CCC2 [Example 2-09]	0.3 to 3
NC(N)=NC(=O)c1ccc2c(c1)C(c1ccc(F)cc1Cl)=CCO2 [Example 1-55]	0.3 to 3
NC(N)=NC(=O)c1ccc2c(c1)C(c1ccc(Oc3ccccc3)cc1)=CCC2 [Example 2-07]	30 to 300
NC(N)=NC(=O)c1ccc2c(c1)C(c1cnccn1)=CCC2 [Example 2-86]	30 to 300
CC1C=C(c2c(F)cccc2F)c2cc(C(=O)N=C(N)N)ccc2O1 (centres unmarked) [Example 1-126]	3 to 30
CC1=C(c2ccc(C)cc2C)c2cc(C(=O)N=C(N)N)ccc2CC1 [Example 2-164]	0.3 to 3
COc1cc(F)c(C2=C(C)CCc3ccc(C(=O)N=C(N)N)cc32)c(F)c1 [Example 2-178]	0.3 to 3
COc1cc(F)ccc1C1=CCCc2ccc(C(=O)N=C(N)N)cc21 [Example 2-54]	0.3 to 3
N#Cc1ccc(C2=C(F)CCc3ccc(C(=O)N=C(N)N)cc32)cc1 [Example 2-91]	0.3 to 3
NC(N)=NC(=O)c1ccc2c(c1)C(c1cccc(Cl)c1F)=CCO2 [Example 1-81]	0.3 to 3

SMILES	Ki [nM]
N#Cc1ccc(F)cc1C1=CCCc2ccc(C(=O)N=C(N)N)cc21 [Example 2-175]	30 to 300
NC(N)=NC(=O)c1ccc2c(c1)C(c1ccsc1)=CCC2 [Example 2-19]	0.3 to 3
Cc1ccc(Cl)c(C2=CCOc3ccc(C(=O)N=C(N)N)cc32)c1F [Example 1-82]	0.3 to 3
N#Cc1cc(Cl)ccc1C1=CCCc2ccc(C(=O)N=C(N)N)cc21 [Example 2-185]	30 to 300
CC1C=C(c2ccc(Cl)nc2Cl)c2cc(C(=O)N=C(N)N)ccc2O1 (centres unmarked) [Example 1-147]	30 to 300
NC(N)=NC(=O)c1ccc2c(c1)C(c1ccco1)=CCC2 [Example 2-20]	3 to 30
CC1(C)C=C(c2ccc(F)c(F)c2F)c2cc(C(=O)N=C(N)N)ccc2O1 [Example 1-119]	30 to 300
CC(C)Oc1ccccc1C1=CCCc2ccc(C(=O)N=C(N)N)cc21 [Example 2-45]	30 to 300
COc1ccc(C2=CCCc3ccc(C(=O)N=C(N)N)cc32)cc1C#N [Example 2-78]	3 to 30
COc1cc(F)c(C2=CCCc3ccc(C(=O)N=C(N)N)cc32)c(F)c1 [Example 2-94]	3 to 30
NC(N)=NC(=O)c1ccc2c(c1)C(c1cc(F)ccc1Cl)=CCC2 [Example 2-169]	3 to 30
COc1ccc(C2=CCCc3ccc(C(=O)N=C(N)N)cc32)c(C#N)c1 [Example 2-68]	30 to 300
NC(N)=NC(=O)c1ccc2c(c1)C(c1cncc(F)c1)=CCC2 [Example 2-123]	30 to 300
CC1(C)C=C(c2ccc(F)cc2)c2cc(C(=O)N=C(N)N)ccc2O1 [Example 1-110]	30 to 300
Cc1ccc(C2=CCSc3ccc(C(=O)N=C(N)N)cc32)c(F)c1 [Example 3-15]	3 to 30
COc1ccccc1C1=C(C)CCc2ccc(C(=O)N=C(N)N)cc21 [Example 2-58]	3 to 30
NC(N)=NC(=O)c1ccc2c(c1)C(c1ccc(Cl)cc1F)=CCO2 [Example 1-54]	0.3 to 3
Cc1cc(Cl)ccc1C1=CCOc2ccc(C(=O)N=C(N)N)cc21 [Example 1-92]	0.3 to 3
NC(N)=NC(=O)c1ccc2c(c1)C(c1cccc(CO)c1)=CCC2 [Example 2-34]	3 to 30
COc1cc(F)cc(F)c1C1=CCCc2ccc(C(=O)N=C(N)N)cc21 [Example 2-179]	3 to 30
CC1C=C(c2cccnc2)c2cc(C(=O)N=C(N)N)ccc2O1 (centres unmarked) [Example 1-128]	30 to 300
NC(N)=NC(=O)c1ccc2c(c1)C(c1nccs1)=CCC2 [Example 2-93]	30 to 300
